{"source": "patent US20120083473A1", "about": "“TREATMENT OF CONDITIONS BY TOLL-LIKE RECEPTOR MODULATORS” (priority 2010, published 2012)", "test_system": "rat collagen-induced arthritis (CIA) model", "assay": "Rat collagen-induced arthritis (CIA) model", "format": "in vivo", "conditions": "for day of definite disease onset / bone erosion score / cumulative arthritis score / cartilage erosion score / joint inflammation score / proteoglycan loss score: mean±SD; for cartilage erosion score / joint inflammation score / proteoglycan loss score: scale 0-3", "experimental": "Collagen-induced arthritis was induced in 9 weeks old female Lewis rats using a two-steps immunization protocol. On day 0, rats were immunized by intradermal injection of approximately 1 ml of 1 mg/ml bovine type II collagen (Chondrex) emulsified in Incomplete Freund's adjuvant (Difco Laboratories) at several sites at the back. Arthritis development was accelerated by an intradermal booster immunization in the back and tail-base with 100 µg bovine type II collagen (Chondrex) in IFA (Difco Laboratories) at day 7. For immunization, rats were anesthetized by inhalation of 3-4% isoflurane in a mixture of oxygen and nitrous oxide.\nRats were evaluated 6 times per week (once during weekends) for arthritis severity using a macroscopic scoring system of 0-4 for each paw as detailed below:\n0=no signs of arthritis 0.5=unloading of the paw and/or light redness of ankle joint 1=redness and mild swelling of the ankle joint 2=redness and swelling of paw 3=severe redness and swelling of entire paw including digits 4=maximally swollen paw, often involvement of multiple joints and extending toward knee joint.\nThe total clinical score of an individual rat is defined as the sum of the clinical scores of all four paws for each day. At the end of the study, the cumulative arthritis score was calculated for each rat. This cumulative arthritis score is defined as the sum of the total clinical scores obtained from day 0 till day 24.\nThe day of disease is defined as the first day of three consecutive days on which a total clinical arthritis score of more than 0 was observed.\nThe swelling of the hind paws was measured during weekdays with a laser scan micrometer (Mitutoyo, LSM-503S/6200). At the end of the study, the cumulative paw swelling was calculated for each rat as follows: a baseline value was determined by averaging the paw thickness values of day 0-9 when no signs of arthritis were visible in the vehicle-treated group. Next, increase in paw thickness was calculated by subtracting the baseline value from the paw thickness values obtained on day 10-24 (delta value). Cumulative paw swelling is defined as the sum of the delta paw thickness values from day 10 till 24.\nLeft ankle joints were decalcified in a solution of 10% EDTA in distilled water, pH 7.4 for at least two months. After a wash in running tap water for 24 hours, the joints were embedded in paraffin and cut into 5 μm sections.\nJoint inflammation was scored on Haematoxylin Phloxine Saffron (HPS) stained sections. The inflammation score is based on the amount of inflammatory cells infiltrated into the joint on a scale of 0-3:\n0=no inflammation 1=inflammatory cells in muscle layer (surrounding tissue) 2=infiltration of inflammatory cells in the joint 3=severe infiltration of inflammatory cells in the joint\nCartilage erosion was also scored on HPS stained sections. Erosion was scored in three compartments between tarsal bones and the tibia bone as the disappearance of cartilage or chondrocyte death on a scale of 0-3:\n0=no erosion 1=erosion in 1 joint compartment 2=erosion in 2 joint compartments 3=erosion in 3 joint compartments\nProteoglycan (PG) loss was scored on Saffranin 0/Fast green-stained sections on a scale of 0-3, indicating increasing loss of staining from the cartilage tissue:\n0=no PG loss 1=1-33% loss of PG staining 2=34-66% loss of PG staining 3=67%-complete loss of PG staining\nBone erosion was scored on HPS stained sections. Erosion was scored at four different locations in two compartments as the number of osteoclasts per field (average value is given in Appendix 8): […]", "note": "Entries after “also recorded” stand apart in the source; their conditions may differ."}
{"compound": "COCCOc1nc(N)c2nc(O)n(Cc3ccc(C(=O)NCCOCCOCCOCCOCCOCCOCCn4cc(CCC(=O)O)nn4)cc3)c2n1", "note": "[Compound 2]", "values": [{"measurement": "day on which disease incidence of 100% was reached", "setting": "1.6 mg/kg", "value": 11, "unit": "days"}, {"measurement": "day of definite disease onset", "setting": "1.6 mg/kg i.p. once daily from day 10", "value": "10.3 ± 0.5", "unit": "days"}, {"measurement": "bone erosion score", "setting": "1.6 mg/kg", "value": "0.63±0.17"}, {"measurement": "cumulative arthritis score", "setting": "1.6 mg/kg", "value": "77.3±11.9", "unit": "a.u."}, {"measurement": "cartilage erosion score", "setting": "1.6 mg/kg", "value": "2.09±0.65"}, {"measurement": "joint inflammation score", "setting": "1.6 mg/kg", "value": "2.69±0.37"}, {"measurement": "proteoglycan loss score", "setting": "1.6 mg/kg", "value": "2.41±0.40"}, {"measurement": "day on which disease incidence of 100% was reached", "setting": "3.2 mg/kg", "value": 13, "unit": "days"}, {"measurement": "day of definite disease onset", "setting": "3.2 mg/kg i.p. once daily from day 10", "value": "10.4 ± 1.1", "unit": "days"}, {"measurement": "bone erosion score", "setting": "3.2 mg/kg", "value": "0.62±0.09"}, {"measurement": "cumulative arthritis score", "setting": "3.2 mg/kg", "value": "83.3±12.2", "unit": "a.u."}, {"measurement": "cartilage erosion score", "setting": "3.2 mg/kg", "value": "2.34±0.68"}, {"measurement": "joint inflammation score", "setting": "3.2 mg/kg", "value": "2.66±0.33"}, {"measurement": "proteoglycan loss score", "setting": "3.2 mg/kg", "value": "2.53±0.21"}, {"measurement": "day on which disease incidence of 100% was reached", "setting": "6.3 mg/kg", "value": 11, "unit": "days"}, {"measurement": "day of definite disease onset", "setting": "6.3 mg/kg i.p. once daily from day 10", "value": "10.4 ± 0.5", "unit": "days"}, {"measurement": "bone erosion score", "setting": "6.3 mg/kg", "value": "0.69±0.13"}, {"measurement": "cumulative arthritis score", "setting": "6.3 mg/kg", "value": "81.1±14.6", "unit": "a.u."}, {"measurement": "cartilage erosion score", "setting": "6.3 mg/kg", "value": "2.06±0.65"}, {"measurement": "joint inflammation score", "setting": "6.3 mg/kg", "value": "2.69±0.32"}, {"measurement": "proteoglycan loss score", "setting": "6.3 mg/kg", "value": "2.47±0.34"}, {"measurement": "day on which disease incidence of 100% was reached", "setting": "12.6 mg/kg", "value": 15, "unit": "days"}, {"measurement": "day of definite disease onset", "setting": "12.6 mg/kg i.p. once daily from day 10", "value": "11.5 ± 2.0", "unit": "days"}, {"measurement": "total clinical arthritis score versus vehicle, end of the study", "setting": "12.6 mg/kg, day 22, 23 and 24 (p=0.036, p=0.017, p=0.044)", "value": "statistically exceeded that of the vehicle group"}, {"measurement": "joint inflammation score", "setting": "12.6 mg/kg, left ankle histology", "value": "2.41±0.42"}, {"measurement": "cumulative arthritis score", "setting": "12.6 mg/kg, day 0 till day 24", "value": "77.6±19.9", "unit": "a.u."}, {"measurement": "bone erosion score", "setting": "12.6 mg/kg, osteoclast score 0-3", "value": "0.56±0.14"}, {"measurement": "cumulative hind paw swelling versus vehicle", "setting": "12.6 mg/kg, p=0.003 left, p=0.004 right hind paw", "value": "significantly reduced; also recorded: reduction"}, {"measurement": "proteoglycan loss versus vehicle", "setting": "12.6 mg/kg, p=0.026", "value": "significantly diminished; also recorded: significant suppression"}, {"measurement": "cartilage erosion score", "setting": "12.6 mg/kg", "value": "1.81±0.91"}, {"measurement": "proteoglycan loss score", "setting": "12.6 mg/kg", "value": "1.97±0.59"}, {"measurement": "clinical signs of arthritis / total clinical arthritis score versus vehicle, initial phase", "setting": "12.6 mg/kg, significant on day 13 and 16 (p=0.018, p=0.011)", "value": "initially suppressed"}, {"measurement": "development of clinical signs of arthritis over time", "setting": "6.3, 3.2 and 1.6 mg/kg groups", "value": "comparable to the vehicle group"}, {"measurement": "arthritis development compared to the vehicle group", "setting": "6.3, 3.2 or 1.6 mg/kg", "value": "did not significantly reduce"}, {"measurement": "paw thickness", "setting": "Compound 2 12.6, 6.3, 3.2, 1.6 mg/kg", "value": "dose-dependent reduction"}, {"measurement": "disease incidence", "setting": "all Compound 2 groups (12.6, 6.3, 3.2, 1.6 mg/kg), till the end of the study", "value": 100, "unit": "%"}, {"measurement": "body weight", "setting": "different concentrations Compound 2", "value": "decreased gradually after disease onset, which was similar to the vehicle group"}, {"measurement": "arthritis development", "setting": "highest dose level (12.6 mg/kg), therapeutic i.p. from day 10", "value": "limited suppression"}, {"measurement": "hind paw swelling versus vehicle", "setting": "other Compound 2 dose groups (6.3, 3.2, 1.6 mg/kg)", "value": "no significant differences"}]}
